Laboratory results as given in ChEMBL document CHEMBL3867430, “Novel 3,4-seco bile acid diamides as selective anticancer proliferation and migration agents” (Eur J Med Chem, 2016).
The source made the active and inactive calls. No cut-off for these calls is given here.

Key:
[1] = Inhibition of colony formation in human PC3M cells at 5 uM after 7 days by crystal violet staining based assay; format: functional; settings: PC-3M, 168 h
[2] = Antiproliferative activity against human ES2 cells after 48 hrs by SRB assay; format: functional, cell-based; settings: ES-2, 48 h
[3] = Cell cycle arrest in human PC3M cells assessed as accumulation at G1 phase at 2.5 uM after 24 hrs by propidium iodide staining based flow cytometry (reference value: 56.82%); format: functional; settings: PC-3M
[4] = Selectivity index, ratio of IC50 for HAF cells to IC50 for human PC3M cells; format: functional
PC-3M [5] = assay: Induction of apoptosis in human PC3M cells assessed as late apoptotic cells at 2.5 uM after 24 hrs by annexin V-FITC/propidium iodide staining based flow cytometry (reference value: 0.97%); format: functional
PC-3M [6] = assay: Induction of apoptosis in human PC3M cells assessed as early apoptotic cells at 10 uM after 24 hrs by annexin V-FITC/propidium iodide staining based flow cytometry (reference value: 15.20%); format: functional
[7] = Cell cycle arrest in human PC3M cells assessed as accumulation at G1 phase at 5 uM after 24 hrs by propidium iodide staining based flow cytometry (reference value: 56.82%); format: functional; settings: PC-3M
PC-3M [8] = assay: Induction of apoptosis in human PC3M cells assessed as early apoptotic cells at 2.5 uM after 48 hrs by annexin V-FITC/propidium iodide staining based flow cytometry (reference value: 31.94%); format: functional
PC-3M [9] = assay: Induction of apoptosis in human PC3M cells assessed as early apoptotic cells at 5 uM after 48 hrs by annexin V-FITC/propidium iodide staining based flow cytometry (reference value: 31.94%); format: functional
PC-3M [10] = assay: Induction of apoptosis in human PC3M cells assessed as late apoptotic cells at 5 uM after 24 hrs by annexin V-FITC/propidium iodide staining based flow cytometry (reference value: 0.97%); format: functional
PC-3M [11] = assay: Induction of apoptosis in human PC3M cells assessed as late apoptotic cells at 20 uM after 24 hrs by annexin V-FITC/propidium iodide staining based flow cytometry (reference value: 0.97%); format: functional
[12] = Antimigratory activity against human PC3M cells at 2.5 uM after 12 hrs by crystal violet staining based transwell migration assay relative to control; format: functional, PC-3M
PC-3M [13] = assay: Induction of apoptosis in human PC3M cells assessed as late apoptotic cells at 10 uM after 24 hrs by annexin V-FITC/propidium iodide staining based flow cytometry (reference value: 0.97%); format: functional
[14] = Cell cycle arrest in human PC3M cells assessed as accumulation at G1 phase at 20 uM after 24 hrs by propidium iodide staining based flow cytometry (reference value: 56.82%); format: functional; settings: PC-3M
PC-3M [15] = assay: Induction of apoptosis in human PC3M cells assessed as late apoptotic cells at 20 uM after 48 hrs by annexin V-FITC/propidium iodide staining based flow cytometry (reference value: 0.32%); format: functional
PC-3M [16] = assay: Antimigratory activity against human PC3M cells after 12 hrs by crystal violet staining based transwell migration assay; format: functional, cell-based
PC-3M [17] = assay: Induction of apoptosis in human PC3M cells assessed as late apoptotic cells at 2.5 uM after 48 hrs by annexin V-FITC/propidium iodide staining based flow cytometry (reference value: 0.32%); format: functional
[18] = Selectivity index, ratio of IC50 for HAF cells to IC50 for human HT-29 cells; format: functional
PC-3M [19] = assay: Induction of apoptosis in human PC3M cells assessed as early apoptotic cells at 2.5 uM after 24 hrs by annexin V-FITC/propidium iodide staining based flow cytometry (reference value: 15.20%); format: functional
[20] = Antimigratory activity against human PC3M cells at 20 uM after 12 hrs by crystal violet staining based transwell migration assay; format: functional, PC-3M
[21] = Cell cycle arrest in human PC3M cells assessed as accumulation at G1 phase at 10 uM after 24 hrs by propidium iodide staining based flow cytometry (reference value: 56.82%); format: functional; settings: PC-3M
PC-3M [22] = assay: Induction of apoptosis in human PC3M cells assessed as early apoptotic cells at 20 uM after 24 hrs by annexin V-FITC/propidium iodide staining based flow cytometry (reference value: 15.20%); format: functional
[23] = Antiproliferative activity against HAF cells after 48 hrs by SRB assay; format: cell-based; settings: Homo sapiens
PC-3M [24] = assay: Induction of apoptosis in human PC3M cells assessed as late apoptotic cells at 10 uM after 48 hrs by annexin V-FITC/propidium iodide staining based flow cytometry (reference value: 0.32%); format: functional
PC-3M [25] = assay: Induction of apoptosis in human PC3M cells assessed as early apoptotic cells at 10 uM after 48 hrs by annexin V-FITC/propidium iodide staining based flow cytometry (reference value: 31.94%); format: functional
[26] = Selectivity index, ratio of IC50 for HAF cells to IC50 for human ES2 cells; format: functional
PC-3M [27] = assay: Induction of apoptosis in human PC3M cells assessed as late apoptotic cells at 5 uM after 48 hrs by annexin V-FITC/propidium iodide staining based flow cytometry (reference value: 0.32%); format: functional
PC-3M [28] = assay: Induction of apoptosis in human PC3M cells assessed as early apoptotic cells at 5 uM after 24 hrs by annexin V-FITC/propidium iodide staining based flow cytometry (reference value: 15.20%); format: functional
[29] = Antiproliferative activity against human HT-29 cells after 48 hrs by SRB assay; format: functional, cell-based; settings: HT-29, 48 h
[30] = Antiproliferative activity against human PC3M cells after 48 hrs by SRB assay; format: functional, cell-based; settings: PC-3M
PC-3M [31] = assay: Induction of apoptosis in human PC3M cells assessed as early apoptotic cells at 20 uM after 48 hrs by annexin V-FITC/propidium iodide staining based flow cytometry (reference value: 31.94%); format: functional
[32] = Cell cycle arrest in human PC3M cells assessed as accumulation at G1 phase after 24 hrs by propidium iodide staining based flow cytometry; format: functional; settings: PC-3M
PC-3M [33] = assay: Inhibition of colony formation in human PC3M cells after 7 days by crystal violet staining based assay; format: functional, cell-based
[34] = Cell cycle arrest in human PC3M cells assessed as reduction in S phase at 2.5 to 20 uM after 24 hrs by propidium iodide staining based flow cytometry; format: functional; settings: PC-3M
PC-3M [35] = assay: Inhibition of colony formation in human PC3M cells at 10 uM after 7 days by crystal violet staining based assay; format: functional, cell-based

C=C(C)C1CC[C@H]2[C@@H]3CC[C@H]([C@H](C)CCC(=O)N4CCNCC4)[C@@]3(C)CC[C@@H]2[C@@]1(C)CCC(=O)N1CCNCC1 (stereo not given in full)
inhibition at 5 µM [1]: 70% | IC50 [2]: 3.86 µM | Activity [3]: 58.4% | Ratio IC50 [4]: 26.3 | Activity (PC-3M [5]): 0.61% | Activity (PC-3M [6]): 14.66% | Activity [7]: 66.3% | Activity (PC-3M [8]): 30.07% | Activity (PC-3M [9]): 30.18% | Activity (PC-3M [10]): 0.87% | Activity (PC-3M [11]): 0.9% | Activity [12]: 50% | Activity (PC-3M [13]): 0.6% | Activity [14]: 79% | Activity (PC-3M [15]): 1.31% | Activity (PC-3M [16]): Dose-dependent effect | Activity (PC-3M [17]): 0.44% | Ratio IC50 [18]: 6.1 | Activity (PC-3M [19]): 15.36% | Activity [20]: 100% | Activity [21]: 69% | Activity (PC-3M [22]): 14.5% | IC50 [23]: 28.1 µM | Activity (PC-3M [24]): 0.79% | Activity (PC-3M [25]): 29.52% | Ratio IC50 [26]: 7.3 | Activity (PC-3M [27]): 0.48% | Activity (PC-3M [28]): 13.78% | IC50 [29]: 4.58 µM | IC50 [30]: 1.07 µM | Activity (PC-3M [31]): 22.72% | Activity [32]: Dose-dependent effect | inhibition (PC-3M [33]): Dose-dependent effect | Activity [34]: Active | inhibition (PC-3M [35]): Active
